{"source": "paper PMC12612047", "about": "(Nature Communications, 2025)", "system": "CLMB-FLAG S-acylation in HEK293 Flp-In TReX cells", "assay": "Metabolic pulse-chase labeling assay of dynamic CLMB S-acylation", "format": "cell-based", "settings": "30-min chase", "data": [{"smiles": "CCCCCCCCCC[C@@H]1C(=O)O[C@H]1CCc1ccc(OC)c(OC)c1", "note": "[PalmB, palmostatin B]", "values": [{"measurement": "increase of palmitate incorporation into CLMB (17-ODYA to L-AHA ratio), PalmB vs DMSO", "result": "~ 3 fold"}]}]}
